# Results taken from article PMC4467398, “Preclinical antitumor activity of ST7612AA1: a new oral thiol-based histone deacetylase (HDAC) inhibitor” (Oncotarget, 2014).
# System: DOHH2 and TMD8 DLBCL cells
# Test: Gene expression profiling (HumanHT-12 v4 BeadChip, limma), ST7612AA1 300 nM 8 hrs vs DMSO
# Assay type: cell-based, human
# Settings: 300 nM 8 hrs
structure (smiles),measurement,value
CC(=O)SCCCCC[C@H](NC(=O)[C@H]1CCC(=O)N1)C(=O)Nc1ccccc1 [ST7612AA1],AveExpr.ST7612 NOSIP (probe ILMN_1759436),7.06E-01
same,AveExpr.ST7612 NPC2 (probe ILMN_1716678),8.44E-01
same,AveExpr.ST7612 NPL (probe ILMN_1782070),7.76E-01
same,AveExpr.ST7612 NPL (probe ILMN_2149494),8.88E-01
same,AveExpr.ST7612 NQO2 (probe ILMN_1712918),8.69E-01
same,AveExpr.ST7612 NUB1 (probe ILMN_1665291),7.20E-01
same,AveExpr.ST7612 NUMB (probe ILMN_2331266),7.27E-01
same,AveExpr.ST7612 NXF1 (probe ILMN_1705783),8.80E-01
same,AveExpr.ST7612 NXF1 (probe ILMN_2358652),7.18E-01
same,AveExpr.ST7612 P704P (probe ILMN_1793950),6.85E-01
same,AveExpr.ST7612 PAQR8 (probe ILMN_1694589),7.20E-01
same,AveExpr.ST7612 PCYOX1 (probe ILMN_1679725),7.89E-01
same,AveExpr.ST7612 PDXK (probe ILMN_1672504),8.94E-01
same,AveExpr.ST7612 PECI (probe ILMN_2384536),8.25E-01
same,AveExpr.ST7612 PEX16 (probe ILMN_1745655),7.84E-01
same,AveExpr.ST7612 PIM2 (probe ILMN_1748283),7.43E-01
same,AveExpr.ST7612 PKIA (probe ILMN_2337974),7.37E-01
same,AveExpr.ST7612 PLD3 (probe ILMN_1666976),8.81E-01
same,AveExpr.ST7612 PMAIP1 (probe ILMN_2098446),8.50E-01
same,AveExpr.ST7612 PNKD (probe ILMN_1774604),7.25E-01
same,AveExpr.ST7612 PRDX2 (probe ILMN_1767766),8.35E-01
same,AveExpr.ST7612 PRDX2 (probe ILMN_2382829),7.41E-01
same,AveExpr.ST7612 PTGER4 (probe ILMN_1795930),9.03E-01
same,AveExpr.ST7612 PTTG1 (probe ILMN_1753196),6.92E-01
same,AveExpr.ST7612 RAB8B (probe ILMN_2173004),8.71E-01
same,AveExpr.ST7612 RAB24 (probe ILMN_2379718),7.77E-01
same,AveExpr.ST7612 RABGAP1 (probe ILMN_2061950),6.86E-01
same,AveExpr.ST7612 RAPGEF2 (probe ILMN_3247261),8.54E-01
same,AveExpr.ST7612 RASAL1 (probe ILMN_1793517),7.10E-01
same,AveExpr.ST7612 RASD2 (probe ILMN_2170209),7.75E-01
same,AveExpr.ST7612 REEP2 (probe ILMN_1666057),6.85E-01
same,AveExpr.ST7612 RFC1 (probe ILMN_2217935),7.23E-01
same,AveExpr.ST7612 RHBDD2 (probe ILMN_1809437),7.80E-01
same,AveExpr.ST7612 RHBDD2 (probe ILMN_2406410),8.04E-01
same,AveExpr.ST7612 RHOBTB3 (probe ILMN_1744949),8.25E-01
same,AveExpr.ST7612 RHOC (probe ILMN_1673305),9.02E-01
same,AveExpr.ST7612 RNASE4 (probe ILMN_1776602),7.33E-01
same,AveExpr.ST7612 RND2 (probe ILMN_1736533),7.06E-01
same,AveExpr.ST7612 RNF24 (probe ILMN_1717809),7.24E-01
same,AveExpr.ST7612 RTN2 (probe ILMN_1749115),8.60E-01
same,AveExpr.ST7612 RTN3 (probe ILMN_2363065),7.08E-01
same,AveExpr.ST7612 SBK1 (probe ILMN_1728298),8.80E-01
same,AveExpr.ST7612 SCARNA11 (probe ILMN_3236010),6.95E-01
same,AveExpr.ST7612 SCARNA13 (probe ILMN_3235325),7.18E-01
same,AveExpr.ST7612 SCARNA14 (probe ILMN_3247636),7.31E-01
same,AveExpr.ST7612 SDCBP (probe ILMN_2363586),8.86E-01
same,AveExpr.ST7612 SDCBP (probe ILMN_2363591),8.22E-01
same,AveExpr.ST7612 SDHAP2 (probe ILMN_3248781),7.07E-01
same,AveExpr.ST7612 SEMA4D (probe ILMN_1687533),7.86E-01
same,AveExpr.ST7612 SEMA4F (probe ILMN_1805007),7.51E-01
same,AveExpr.ST7612 SERPINB9 (probe ILMN_1742052),7.55E-01
same,AveExpr.ST7612 SERPINI1 (probe ILMN_1814333),7.79E-01
same,AveExpr.ST7612 SGK (probe ILMN_1702487),8.82E-01
same,AveExpr.ST7612 SH3GLB2 (probe ILMN_2158336),6.85E-01
same,AveExpr.ST7612 SLC23A2 (probe ILMN_1746578),7.82E-01
same,AveExpr.ST7612 SLC25A4 (probe ILMN_1681670),8.53E-01
same,AveExpr.ST7612 SLC25A4 (probe ILMN_2211780),7.98E-01
same,AveExpr.ST7612 SLC25A23 (probe ILMN_1679949),7.04E-01
same,AveExpr.ST7612 SLC44A2 (probe ILMN_1771987),7.92E-01
same,AveExpr.ST7612 SLC45A3 (probe ILMN_1726114),7.11E-01
same,AveExpr.ST7612 SLFN11 (probe ILMN_1752520),7.62E-01
same,AveExpr.ST7612 SNAP23 (probe ILMN_1687519),8.74E-01
same,AveExpr.ST7612 SNORD31 (probe ILMN_2072391),7.85E-01
same,AveExpr.ST7612 SORT1 (probe ILMN_1707077),8.42E-01
same,AveExpr.ST7612 SPAG9 (probe ILMN_2263718),7.33E-01
same,AveExpr.ST7612 SPINT2 (probe ILMN_1800739),8.11E-01
same,AveExpr.ST7612 SREBF1 (probe ILMN_1663035),7.22E-01
same,AveExpr.ST7612 SRGN (probe ILMN_1760347),7.62E-01
same,AveExpr.ST7612 SRGN (probe ILMN_2169152),7.60E-01
same,AveExpr.ST7612 STARD10 (probe ILMN_1717052),8.01E-01
same,AveExpr.ST7612 STK17B (probe ILMN_1798543),7.91E-01
same,AveExpr.ST7612 STMN3 (probe ILMN_3244117),9.01E-01
same,AveExpr.ST7612 STX3 (probe ILMN_1659544),8.71E-01
same,AveExpr.ST7612 SUSD3 (probe ILMN_1785570),8.58E-01
same,AveExpr.ST7612 TACC1 (probe ILMN_1770084),7.64E-01
